Molecules are shown by their SMILES. pKi: −log10 of the molar value.

One series has as its target T1, M5 (Homo sapiens, UniProt P08912).
T1 sequence (P08912 1-532): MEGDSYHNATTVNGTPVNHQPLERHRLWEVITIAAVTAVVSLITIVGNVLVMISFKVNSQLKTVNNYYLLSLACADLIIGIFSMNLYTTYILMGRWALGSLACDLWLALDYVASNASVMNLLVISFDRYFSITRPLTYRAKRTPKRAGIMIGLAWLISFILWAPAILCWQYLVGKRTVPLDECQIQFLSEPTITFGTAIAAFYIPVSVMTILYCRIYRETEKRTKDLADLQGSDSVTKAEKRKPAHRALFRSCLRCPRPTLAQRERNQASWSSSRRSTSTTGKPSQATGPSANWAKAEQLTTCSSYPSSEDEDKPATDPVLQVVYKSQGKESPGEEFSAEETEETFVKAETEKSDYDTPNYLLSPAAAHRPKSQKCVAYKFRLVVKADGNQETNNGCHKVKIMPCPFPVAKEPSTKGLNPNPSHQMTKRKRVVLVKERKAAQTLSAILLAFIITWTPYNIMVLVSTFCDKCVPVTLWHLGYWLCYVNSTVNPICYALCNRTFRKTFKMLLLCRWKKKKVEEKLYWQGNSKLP
Put plainly: PDSP radioligand assay. The class given is binding.

Series [1] deals with T2, σ1R (Mus musculus, UniProt O55242).
T2 construct: The PET/CT studies in mice followed previously reported procedures; from tissue; host or cells: mouse brain in vivo (C57BL/6 wild type; 5xFAD transgenic)
The series is described as follows: Mice PET/CT imaging, baseline and self-blocking. Format: in vivo, C57BL/6 mice. As for the experimental part:
PET/CT imaging studies of [^11C]CNY‐01 and [^11C]CNY‐02 were performed in male C57BL/6 mice. […] The whole‐brain time‐activity curve (TAC) of each tracer was generated. […] To investigate the binding specificity of [^11C]CNY‐01 and [^11C]CNY‐02, blocking studies were carried out by pre‐administrating mice with corresponding unlabeled ligands. […] This is due to the receptors in peripheral tissues being occupied by CNY‐01, leading to more radiotracer entering the brain and quickly washing out. […] Of note, the TACs show an increase in brain tracer uptake during the blocking studies, which could be attributed to peripheral blocking effects. To address this, we normalized the brain uptake data to the maximum radioactivity observed in the blood (input function). This normalization allowed us to account for peripheral changes in tracer availability.
Figure 3 Mice PET/CT study with [^11C]CNY‐01 and [^11C]CNY‐02. A) Representative baseline and blocking (pre‐treated with 1.0 mg kg^−1 CNY‐01) PET/CT images of [^11C]CNY‐01 focused on the brain (summed 30‒60 min, n = 4). B) Whole brain time‐activity curves of [^11C]CNY‐01 for baseline and blocking mice. C) The normalized baseline and blocking TACs of [^11C]CNY‐01 (normalized the brain uptake curves with the maximum radioactivity in the blood at each time point). D) Representative baseline and blocking (pre‐treated with 1.0 mg kg^−1 CNY‐02) PET/CT images of [^11C]CNY‐02 focused on the brain (summed 30‒60 min, n = 4). E) Whole brain time‐activity curves of [^11C]CNY‐02 for baseline and blocking mice. F) The normalized baseline and blocking TACs of [^11C]CNY‐02 (normalized the brain uptake curves with the maximum radioactivity in the blood at each time point). Data were presented as mean ± standard error of the mean (SEM). Quantification of results was performed using Student's t‐test (***p < 0.0001).
The PET/CT studies in mice followed previously reported procedures with minor modifications.^[ [53], [54] ^] Mice (wild‐type: C57BL/6, male, 6‐month‐old; AD transgenic: 5xFAD, male, 6‐month‐old, n = 4 for each group) were anesthetized with inhalational isoflurane (Patterson Vet Supply, Inc., Greeley, CO, USA) at 2.0% in a carrier of 2 L min^−1 medical oxygen, and maintained at 1.0% isoflurane during the imaging scan. Mice were injected with radiotracer (200 µL) via lateral tail vein catheterization at the start of the dynamic PET scan (Gamma Medica, Northridge, CA, USA). For blocking studies, the blocking agent was administered via the tail vein 5 min before radiotracer injection. Dynamic PET acquisition lasted 60 min and was followed by computed tomography (CT) for anatomic co‐registration. […] Reconstructed images were exported from the scanner in DICOM format and were analyzed using PMOD (PMOD 4.01).

The target in series [2] is T2, σ1R. Put plainly: PET/CT imaging in 5xFAD transgenic and WT mice. Format: in vivo, 5xFAD mice. Conditions: 6-month-old male mice, PET/CT 30–60 min. The text has this:
Numerous studies have shown that σ 1R is abnormally expressed in the AD brain, and targeting σ 1R becomes a promising strategy for diagnosis and treatment of AD.^[ [11], [49] ^] To evaluate the diagnostic potential of [^11C]CNY‐01 for AD and its potential application in studying the relationship between the σ 1R and AD pathology, we conducted PET imaging studies on 5xFAD transgenic mice model and the corresponding wild‐type (WT) mice. […] Of particular note, brain regions with relatively high σ 1R expression observed higher reduction of radioactivity uptake, such as the striatum, hippocampus, and cerebellum, indicating a decrease in σ 1R expression in the brain under AD pathological conditions, consistent with previous reports (Figure 5B).^[ [11], [49], [50] ^]
Figure 5 PET/CT imaging studies of [^11C]CNY‐01 in WT and 5xFAD mouse model. A) Representative PET/CT images (30–60 min) focused on the WT and 5xFAD mice brain. (n = 4). […] Data were presented as mean ± standard error of the mean (SEM). Quantification of results was performed using Student's t‐test (****p < 0.0001, ***p < 0.001, **p < 0.01, […]).
The PET/CT studies in mice followed previously reported procedures with minor modifications.^[ [53], [54] ^] […] Reconstructed images were exported from the scanner in DICOM format and were analyzed using PMOD (PMOD 4.01).

T2 sequence (O55242 whole entry): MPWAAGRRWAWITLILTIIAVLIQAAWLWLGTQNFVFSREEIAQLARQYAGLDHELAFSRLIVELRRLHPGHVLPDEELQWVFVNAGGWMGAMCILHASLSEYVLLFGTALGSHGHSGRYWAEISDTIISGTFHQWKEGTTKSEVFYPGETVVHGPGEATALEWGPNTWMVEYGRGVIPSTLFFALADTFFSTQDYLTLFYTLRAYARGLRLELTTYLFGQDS

With `COc1ccc(-c2nc(C)c(Cl)c(OCCCN3CCCCC3)n2)cc1` [CNY-01, 5‐chloro‐2‐(4‐methoxyphenyl)‐4‐methyl‐6‐(3‐(piperidin‐1‐yl)propoxy)pyrimidine], at M5, the pKi is less than 5.00 and the inhibition at 10 µM was 59.1%.

As for `Cc1nc(-c2ccc(O[11CH3])cc2)nc(OCCCN2CCCCC2)c1Cl` [[^11C]CNY-01], at σ1R [1] (male C57BL/6 mice, baseline PET/CT), the “maximum standard uptake value (SUV) in the brain” value is 1.3. At σ1R [1] (pre-treated with 1.0 mg kg^−1 of the corresponding unlabeled ligand), the “blocking effect, brain uptake normalized to maximum radioactivity in the blood” value is given as “significant blocking effect”. Besides, the “brain uptake in 5xFAD mice compared to WT mice” value at σ1R [2] is on record as “significantly lower uptake”.

Take `Cc1nc(-c2ccc(Cl)cc2)nc(OCCCN2CCN(C)CC2)c1Cl` [CNY-02, 5‐chloro‐2‐(4‐chlorophenyl)‐4‐methyl‐6‐(3‐(4‐methylpiperazin‐1‐yl)propoxy)pyrimidine]: at M5, the pKi was 5.60 and testing at 10 µM gave an inhibition of 83.3%.

A word on the pKi: it is the Ki on a negative log10 scale, so that one unit is a factor of ten. A low value points to a high Ki. A word on the inhibition: it is the share of the control response that was lost under treatment.
